Data from publication PMC12000433 (Scientific Reports, 2025).

Legend:
[1] = test system: β1i/LMP2, β5i/LMP7 and β2i/PSMB10 in SK-N-MC^A*02:01 and other EwS cell lines; experiment: Western blot of immunoproteasome subunits in EwS cell lines; type: cell-based, human; details: IFN-γ 100U/ml, 24 h
[2] = test system: MHC class I on EwS cell lines; experiment: flow cytometry of MHC class I on EwS cell lines; type: cell-based, human; details: IFN-γ 100U/ml, 24 h; W6/32 and BB7.2 mAbs

IFN-γ: inflammatory cytokine used to treat EwS cell lines and tumors
immunoproteasome subunit expression [1]: induced de novo expression of immunoproteasome subunits
MHC class I expression [2]: induced MHC class I upregulation
